Where “and” joins values, the source holds several entries; their conditions need not be identical. Equal entries are not always repeated.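 A five-concentration, 48-hour dose response in 96-well plates underlies each endpoint, interpolated linearly between surrounding concentrations. GI50 is the concentration that inhibits growth by half. The concentration for full growth arrest is given as TGI.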

Test in all cases: DTP human tumour cell line panel, 48 h
Assay [1] concerns EKVX NSCLC.
The subject of assay [2] is HOP-92 NSCLC.
In assay [3] the test system is HT29 colon.
The test system of assay [4] is K-562 leukemia.
The test system of assay [5] is MDA-MB-231 breast.
Assay [6] relates to MDA-MB-435.
For assay [7], the system named is OVCAR-8 ovarian.
The test system of assay [8] is SNB-19 CNS.
In assay [9] the test system is SR leukemia.
The test system of assay [10] is UO-31 renal.

With `COc1cccc(N2C(=O)C3c4[nH]c5ccccc5c4C4c5ccccc5CCC4C3C2=O)c1` (configuration not stated), the concentration for total growth inhibition (TGI) in assay [1], in assay [2], in assay [3], in assay [4], in [5] and in assay [6] was greater than 10 µM throughout. Further, the TGI in assay [7] is 9.9 µM; in assay [8] it was greater than 10 µM; in assay [9], greater than 4.01 µM; in [10] it was greater than 10 µM.

With `O=C(Nc1sccc1S(=O)(=O)c1ccccc1)c1cccnc1`, the TGI in assay [1] was greater than 100 µM; in assay [2] it was greater than 100 µM; in assay [3] it was greater than 100 µM; in [4], greater than 100 µM; in [5] it was greater than 100 µM; in assay [6] it was 8.36 µM. Moreover, the total growth inhibition concentration (TGI) in assay [7], in [8], in assay [9] and in [10] was greater than 100 µM throughout.

As to `O=C(Nc1ccccc1)O/N=C(/CBr)c1ccccc1`, the TGI in assay [1] is 35.1 µM; in assay [2], 33.2 µM; in assay [3], greater than 100 µM; in assay [4] it was greater than 100 µM; in [5], 29.3 µM; in assay [6] it was 21.5 µM. For the same compound, the TGI was found to be 44.1 µM in [7], 53.9 µM in assay [8], 44.2 µM in assay [9] and 32.4 µM in assay [10].

In the case of `CCOC(C[Se]CC(OCC)OCC)OCC`, the TGI in assay [1], in assay [2], in [3], in assay [4], in [5] and in [6] was greater than 100 µM in each case. For the same compound, the TGI in assay [7], in assay [8], in assay [9] and in assay [10] was greater than 100 µM throughout.

For the compound `CC(C)(CO)CNc1cc(=O)[nH]c(N)n1`, the TGI in [1], in assay [2], in [3], in [4], in assay [5] and in assay [6] was greater than 100 µM in each case. For the same compound, the concentration for total growth inhibition (TGI) in assay [7], in [8], in assay [9] and in assay [10] was greater than 100 µM throughout.

For `COC(=O)c1cc(C)ccc1CC(Cc1cccc(C)c1)C(=O)OC` (configuration not stated), the total growth inhibition concentration (TGI) in assay [1], in assay [2], in assay [3], in [4], in [5] and in assay [6] was greater than 100 µM in each case. The concentration for total growth inhibition (TGI) in assay [7], in assay [8], in [9] and in assay [10] was greater than 100 µM each time.

Take `CC(C)C[C@H](NC(=O)[C@H](Cc1cccc2ccccc12)NC(=O)N1CCOCC1)B(O)O`: the GI50 was 0.00928 µM in assay [1]; 0.000654 µM in assay [2]; 0.00131 µM in assay [3]; 0.00347 µM in assay [4]; 0.00188 µM in assay [5]; 0.000136 µM in assay [6]. For the same compound, the values for the concentration for 50% growth inhibition (GI50) in [7] and in assay [9] were 0.0113 µM and 0.00276 µM, respectively. Also, the total growth inhibition concentration (TGI) was 0.159 µM in [1]; 0.00322 µM and < 0.0122 µM in assay [2]; 0.00448 µM in [3]; 0.00398 µM in assay [5]; 0.000308 µM in assay [6]; 0.0626 µM in assay [7]. In addition, the TGI is greater than 100 µM in [8]; 0.013 µM in assay [9]; 0.159 µM and 0.211 µM in assay [10].

Regarding `Cc1ccc(S(=O)(=O)N/C(=C\C=C\c2ccccc2)C(=O)C(C)(C)C)cc1`, the TGI in [1] is greater than 100 µM; in [2], 71.9 µM; in assay [3] it was greater than 100 µM; in assay [4], greater than 100 µM; in assay [5] it was greater than 100 µM; in assay [6] it was greater than 100 µM. The concentration for total growth inhibition (TGI) in assay [7], in assay [8], in assay [9] and in assay [10] was greater than 100 µM in each case.

For the compound `Cc1c(-c2c(C)c3ccccc3n2S(=O)(=O)c2ccccc2)n(S(=O)(=O)c2ccccc2)c2ccccc12`, the TGI in assay [1], in assay [2], in assay [3], in assay [4], in [5] and in assay [6] was greater than 100 µM throughout. The concentration for total growth inhibition (TGI) in assay [7], in [8], in assay [9] and in [10] was greater than 100 µM in each case.

Turning to `CC(=O)O/C=C\OC1CCCC1(c1ccccc1)c1ccccc1` (configuration not stated), the total growth inhibition concentration (TGI) came out at 20.7 µM in assay [1]; 3.89 µM in [2]; 8.71 µM in assay [3]; 9.05 µM in assay [4]; 5.51 µM in assay [5]; 4.11 µM in assay [6]. The TGI in assay [7] stood at 7.3 µM; in [8] it was 26.3 µM; in assay [9], 4.93 µM; in assay [10] it was 3.61 µM.

Regarding `COc1cc2c(cc1C[N+](C)(C)CSc1ccccc1)-c1ccccc1CC2`, the concentration for total growth inhibition (TGI) worked out at 23.7 µM in [1]; 26.2 µM in assay [2]; 13.1 µM in [3]; 6.75 µM in [4]; 10 µM in assay [5]; 12.5 µM in assay [6]. The TGI turned out to be 14.6 µM in assay [7], 10.7 µM in assay [8], 7.55 µM in assay [9] and 28.6 µM in assay [10].

Turning to `c1ccc(CNc2c3c(nc4ccccc24)CCC3)cc1`, the TGI was 42.9 µM in [1]; 25.9 µM in [2]; 50.1 µM in assay [3]; 26.2 µM in assay [4]; 27.1 µM in [5]; 30.6 µM in assay [6]. The TGI in assay [7] is 31.7 µM; in assay [8], 67.7 µM; in assay [9], 38.9 µM; in [10] it was 25 µM.

(Values after PubChem BioAssay (NCI).)
